Some test systems named below: MCF7; HCC 2998; Hs-578T; Malme-3M; CAKI-1; OVCAR-4; COLO 205; PC-3; SNB-19; 786-0; MDA-MB-435; T47D; HOP-62; IGROV-1; UACC-62; SF-268; HT-29; CCRF-CEM; LOX IMVI.
Assay in all cases: DTP human tumour cell line panel, 48 h

Each structure is given as a SMILES string.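 The compound was tested at five concentrations on cells cultured in 96-well plates, with a 48-hour exposure period. GI50 = concentration required for 50% inhibition of growth.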 Active and inactive are the calls of the source. Rule as the data show it: active = GI50 up to about 1.1 µM and inactive = higher. A value given as a limit tells only on which side of the number the result lay.

The values that follow come from ChEMBL document CHEMBL1201862, “PubChem BioAssay data set” (2004).

The term GI50 denotes the concentration giving 50% growth inhibition. Regarding `C=C(c1nc2ccc(Cl)cc2[nH]c1=O)C(O)c1ccc(C(O)C(=O)c2nc3ccc(Cl)cc3[nH]c2=O)cc1` (stereo not drawn), the GI50 in the assay on MCF7, in the assay with HCC 2998, in the assay with Hs-578T, in the assay with Malme-3M, with CAKI-1 and in the assay with OVCAR-4 was > 100 µM (inactive) throughout. Further, the GI50 was > 100 µM (inactive) with COLO 205; 87.9 µM (inactive) with PC-3; > 100 µM (inactive) in the assay on SNB-19; > 100 µM (inactive) in the assay with 786-0; > 100 µM (inactive) in the assay with MDA-MB-435; > 100 µM (inactive) with T47D. Also, the GI50 with HOP-62 was > 100 µM (inactive); in the assay on IGROV-1, > 68.2 µM (inactive); with UACC-62, > 79.6 µM (inactive); in the assay on SF-268, > 100 µM (inactive); in the assay on HT-29, > 100 µM (inactive); in the assay on CCRF-CEM it was 4.28 µM (inactive). Besides, the GI50 with LOX IMVI is > 83.6 µM (inactive).
Turning to `COc1ccc(OC)c(C[P+](c2ccccc2)(c2ccccc2)c2ccccc2)c1`, the GI50 is 2.11 µM (inactive) with MCF7; 3.54 µM (inactive) with HCC 2998; 2.01 µM (inactive) with Hs-578T; 5.56 µM (inactive) in the assay on Malme-3M; 23.4 µM (inactive) in the assay on CAKI-1; 4.01 µM (inactive) with OVCAR-4. Further, the 50% growth inhibitory concentration (GI50) in the assay on COLO 205 is 1.1 µM (active); in the assay on PC-3, 1.57 µM (inactive); with SNB-19, 2.67 µM (inactive); in the assay on 786-0, 3.38 µM (inactive); with MDA-MB-435, 0.984 µM (active); with T47D, 2.87 µM (inactive). Also, the GI50 in the assay on HOP-62 is 3.77 µM (inactive); in the assay with IGROV-1, 0.971 µM (active); with UACC-62, 0.971 µM (active); in the assay with SF-268, 3.72 µM (inactive); with HT-29 it was 0.45 µM (active); in the assay on CCRF-CEM, 2.56 µM (inactive). Further, the 50% growth inhibitory concentration (GI50) in the assay on LOX IMVI was 0.968 µM (active).
Regarding `CC(C)C1C(=O)N2CCCC2C2(O)OC(NC(=O)C3C=C4c5cccc6[nH]cc(c56)CC4N(C)C3)(C(C)C)C(=O)N12` (stereo not drawn), the GI50 with MCF7 is 35.8 µM (inactive); with HCC 2998, 19.7 µM (inactive); in the assay on Hs-578T, 22.5 µM (inactive); with CAKI-1, 16.7 µM (inactive); in the assay on OVCAR-4, 18.3 µM (inactive); in the assay with COLO 205, 20.7 µM (inactive). For the same compound, the GI50 is 21.1 µM (inactive) in the assay on PC-3; 44.4 µM (inactive) in the assay with SNB-19; 17.9 µM (inactive) with 786-0; 29.2 µM (inactive) with MDA-MB-435; 47.6 µM (inactive) in the assay on T47D; 23.4 µM (inactive) with HOP-62. Moreover, the GI50 was 14.9 µM (inactive) in the assay on IGROV-1; 18.1 µM (inactive) with UACC-62; 41.1 µM (inactive) in the assay on SF-268; 18 µM (inactive) in the assay with HT-29; 24.7 µM (inactive) in the assay on CCRF-CEM; 18.1 µM (inactive) in the assay on LOX IMVI.
In the case of `CCOC(=O)/C(C)=C\[C@@]1(C)O[C@@H](C)[C@@](C)(OC(C)=O)[C@@H]1OC(C)=O`, the GI50 in the assay with MCF7 was 23 µM (inactive); with HCC 2998, 30.2 µM (inactive); in the assay on Hs-578T, 27 µM (inactive); in the assay with Malme-3M, 57.3 µM (inactive); in the assay with CAKI-1 it was 33 µM (inactive); with OVCAR-4, 33.4 µM (inactive). Besides, the GI50 is 30 µM (inactive) in the assay on COLO 205; 36.6 µM (inactive) in the assay on PC-3; > 100 µM (inactive) in the assay on SNB-19; 63.5 µM (inactive) with 786-0; 41.7 µM (inactive) in the assay on MDA-MB-435; 19.9 µM (inactive) with T47D. Moreover, the GI50 with HOP-62 was 70.6 µM (inactive); with IGROV-1, 37.7 µM (inactive); in the assay on UACC-62, 49.9 µM (inactive); with SF-268, 39.3 µM (inactive); in the assay with HT-29, 40.6 µM (inactive); in the assay with CCRF-CEM, 33.5 µM (inactive). Also, in the assay on LOX IMVI, the GI50 is 71 µM (inactive).
Turning to `COc1c(-c2ccc3c(c2)OCO3)oc2cc(O)cc(O)c2c1=O`, the GI50 in the assay with MCF7 is 21.6 µM (inactive); with HCC 2998, 78.9 µM (inactive); with Hs-578T, 14.3 µM (inactive); in the assay on CAKI-1 it was 27.7 µM (inactive); in the assay with OVCAR-4 it was 29.5 µM (inactive); in the assay on COLO 205, > 100 µM (inactive). Besides, the GI50 in the assay with PC-3 was 57.3 µM (inactive); in the assay with SNB-19, > 100 µM (inactive); with 786-0, 38.4 µM (inactive); with MDA-MB-435, 45.7 µM (inactive); in the assay with T47D, 12.9 µM (inactive); in the assay with HOP-62, 18.6 µM (inactive). Further, the GI50 in the assay on IGROV-1 was 26.2 µM (inactive); in the assay with UACC-62, 46.6 µM (inactive); with SF-268, 32.6 µM (inactive); in the assay on HT-29, 36.6 µM (inactive); in the assay on CCRF-CEM, 41.4 µM (inactive); in the assay on LOX IMVI it was 45.4 µM (inactive).
In the case of `CN(Cc1cnc2nc(N)nc(N)c2n1)c1ccc(C(=O)NC(CCS(=O)(=O)O)C(=O)O)cc1` (stereo not drawn), the GI50 in the assay on MCF7 was 0.268 µM (active); with HCC 2998, 0.916 µM (active); in the assay with Hs-578T it was > 100 µM (inactive); with CAKI-1, > 100 µM (inactive); in the assay with OVCAR-4, > 100 µM (inactive); with COLO 205 it was > 72.3 µM (inactive). Besides, the concentration for 50% growth inhibition (GI50) in the assay on PC-3 is 0.0665 µM (active); with SNB-19, 7.16 µM (inactive); in the assay on 786-0, 0.132 µM (active); with MDA-MB-435, 0.426 µM (active); in the assay on T47D, > 100 µM (inactive); in the assay on HOP-62 it was 0.783 µM (active). For the same compound, the GI50 is 0.553 µM (active) with IGROV-1; 0.508 µM (active) in the assay with UACC-62; 0.465 µM (active) in the assay with SF-268; 4.02 µM (inactive) in the assay with HT-29; 0.0312 µM (active) in the assay with CCRF-CEM; 0.103 µM (active) in the assay with LOX IMVI.
As to `NC(=O)C1CCCN1C(=O)N(CCCl)N=O` (stereo not drawn), the GI50 with MCF7, with HCC 2998, in the assay on Hs-578T, in the assay on Malme-3M, with CAKI-1 and with OVCAR-4 was > 100 µM (inactive) throughout. The GI50 in the assay with COLO 205, in the assay with PC-3, with SNB-19, in the assay on 786-0, in the assay with MDA-MB-435 and in the assay on T47D was > 100 µM (inactive) each time. For the same compound, the GI50 with HOP-62 is > 100 µM (inactive); in the assay on IGROV-1, > 100 µM (inactive); with UACC-62, > 100 µM (inactive); in the assay with SF-268 it was 74.1 µM (inactive); in the assay on HT-29 it was > 100 µM (inactive); with CCRF-CEM it was > 100 µM (inactive). Moreover, the GI50 in the assay on LOX IMVI was > 100 µM (inactive).
Take `O=c1ccc2[n+]([O-])c3ccc(O)cc3oc-2c1` [RESAZURIN]: the GI50 in the assay with MCF7 was 4.95 µM (inactive); with HCC 2998, 34.6 µM (inactive); with Hs-578T, 7.53 µM (inactive); in the assay with Malme-3M, 4.02 µM (inactive); in the assay on CAKI-1, 32.5 µM (inactive); in the assay with OVCAR-4, 23.4 µM (inactive). In addition, the GI50 with COLO 205 is 12.9 µM (inactive); in the assay with PC-3, 7.23 µM (inactive); in the assay on 786-0, 12.5 µM (inactive); in the assay on MDA-MB-435 it was 1.89 µM (inactive); in the assay with T47D it was 56.4 µM (inactive); in the assay with HOP-62 it was 18.7 µM (inactive). In addition, the GI50 was 25.2 µM (inactive) in the assay with IGROV-1; 2.59 µM (inactive) in the assay with UACC-62; 19.2 µM (inactive) with SF-268; 19.6 µM (inactive) with HT-29; 30 µM (inactive) with CCRF-CEM; 3.44 µM (inactive) in the assay on LOX IMVI.
